Results on 13 compounds are retold here after paper PMC8157947, “Peptidic boronic acids are potent cell-permeable inhibitors of the malaria parasite egress serine protease SUB1” (Proceedings of the National Academy of Sciences of the …, 2021).

Data set [1] concerns the target T1, recombinant PfSUB1 (rPfSUB1) (Plasmodium falciparum, UniProt Q8I0V0).
T1 construct: Chymotrypsin-treated rPfSUB1 (expressed and purified as described previously); made in house
Description: rPfSUB1 fluorogenic peptide substrate cleavage inhibition assay. It is filed as biochemical. The source says:
We previously described the development of a fluorescence-based in vitro assay suitable for the evaluation of substrate-based PfSUB1 inhibitors, using recombinant PfSUB1 (rPfSUB1) and fluorogenic peptide substrates based on cleavage sites within endogenous protein substrates of PfSUB1 ([13], [21]). […] This was perhaps unsurprising due to the high molecular mass and polar nature of these compounds, including the presence of a carboxylic acid moiety that was designed to mimic endogenous PfSUB1 protein substrates by interacting with the basic S’ surface of the PfSUB1 active-site cleft ([16]). Collectively, these features likely rendered the compounds poorly membrane penetrant.
Fluorescence of this peptide is quenched by rhodamine dimerization in the intact substrate but increases upon cleavage at the internal Q-D bond. Chymotrypsin-treated rPfSUB1 (expressed and purified as described previously ([16]) was stored at −80 °C as a 228 U/mL stock in 20 mM Tris–HCl pH 8.2, 150 mM NaCl, 10% glycerol, and diluted for use (1:500 or 1:600) in reaction buffer (20 mM Tris–HCl pH 8.2, 150 mM NaCl, 12 mM CaCl2, 25 mM CHAPS). Peptidic boronic acid inhibitors were dissolved in 100% DMSO at 10 or 20 mM, then further diluted in DMSO to generate stock solutions ranging from 500 to 0.01 μM and then used diluted 1:100 in the enzyme reactions. All reactions were performed in wells of white 96-well microwell plates (Nunc); 50 μL diluted rPfSUB1 was preincubated for 5 min with 1 μL each of the serially diluted boronic acid inhibitors, followed by addition of 50 μL substrate solution (0.1 μM final). Subsequent fluorescence increase was continuously monitored using a SpectraMax M5e plate reader and SoftMax Pro-6.3 software, with readings taken every 5 min for 60 min using excitation and emission values of 552 and 580 nm, respectively. […] All experiments were performed in duplicate.

The test system of data set [2] is asexual blood-stage P. falciparum (clone 3D7). Description: SYBR Green I parasite growth assay. The note with it: for EC50: Plasmodium falciparum, 3D7, 96 h, two erythrocytic growth cycles, SYBR Green I. It is filed as cell-based, Plasmodium falciparum. As to the method:
The impact of the peptidic boronic acids on replication of asexual blood-stage P. falciparum (clone 3D7) was assessed using a SYBR Green I assay, essentially as described by Smilkstein et al. ([22]). Briefly, test compounds (dissolved in dimethyl sulfoxide [DMSO] at concentrations ranging from 4 mM to 5 μM) were added in triplicate to wells of flat bottomed, 96-well microtitre plates (1 μL per well). Wells were then supplemented with 100 μL per well of a P. falciparum parasite culture at 0.1% parasitaemia, 1% hematocrit. Each assay plate also included DMSO-only control wells (1% vol/vol), as well as additional control wells containing uninfected RBCs only. Plates were incubated in sealed, humidified gassed chambers at 37 °C for 96 h to allow the parasites to undergo two entire cycles of erythrocytic growth. Wells were then supplemented with 100 μL 1:5,000 dilution of stock SYBR Green I (Life Technologies, catalog no. S7563) diluted in 20 mM Tris HCl pH 7.5, 5 mM EDTA, 0.008% (weight/vol) saponin, 0.08% (vol/vol) Triton ×100. Plates were agitated to mix, incubated for a further 1 h in the dark at room temperature, then 150 μL samples from each well transferred to a fresh white microwell plate and fluorescence quantified using a SpectraMax M5e plate reader and SoftMax Pro-6.3 software (Ex 485 nm/Em 530 nm). IC50 values were determined from dose–response curves obtained after subtracting background fluorescence values (obtained from the RBC-only wells) from all experimental readings.

Data set [3] has as its system P. falciparum 3D7 schizonts. Briefly: Short-term egress/invasion assay, ring formation by flow cytometry. The note with it: for EC50: Plasmodium falciparum, mature 3D7 schizonts with RBCs, 4 h, flow cytometry. Type of data set: cell-based, Plasmodium falciparum. The procedure: For this, P. falciparum cultures containing synchronous, highly mature schizonts were supplemented with compounds 3b, 3e, 3i, and 3j at a range of dilutions, then allowed to undergo egress and invasion for just 4 h in the continued presence of the compounds, before assessing formation of newly invaded “ring” stage parasites by flow cytometry.
(§1) Short-term egress, invasion, and washout assays were performed essentially as described previously ([27], [28], [42]). Briefly, highly synchronous mature Percoll-enriched schizonts with or without added fresh RBCs (∼5% parasitaemia final) were incubated with compounds under test or vehicle only (DMSO, 1% vol/vol). For washout assays, schizonts were treated with C2 or various concentrations of inhibitor 3j for 1 to 4 h, then washed extensively (at least four times) prior to addition to fresh RBCs where required. After incubation at 37 °C for just 1 to 4 h (or overnight for invasion assays) to allow schizont rupture, cells were pelleted. Clarified culture supernatants were assessed for extent of hemoglobin release (a measure of schizont rupture) by absorption spectroscopy at 415 nm as described previously ([28]) or analyzed by Western blot using antibodies against SERA5 ([7], [11]). To quantify generation of new rings, samples of the cultures were fixed with 4% paraformaldehyde/0.02% glutaraldehyde and stained with SYBR Green I (Life Technologies) and then analyzed by flow cytometry on a BD FACSVerse using BD FACSuite software. Data were analyzed using FlowJo software. All cultures were also routinely analyzed by microscopic examination of Giemsa-stained thin films to visually assess parasite morphology.
On the technique in general: In flow cytometry, cells or beads pass a laser one at a time.

Details of data set [4]: method as in PMID 30117017. To be noted: cited from earlier work.
In data set [5] the target is T1, recombinant PfSUB1 (rPfSUB1). The note with it: cited from earlier work.
Data set [6] has as its system asexual blood-stage P. falciparum (clone 3D7). Also noted: method as in PMID 22543039, PMID 25129616. The note with it: earlier work; cited from earlier work.
Data set [7] concerns P. falciparum schizonts expressing EXP2-mNeonGreen. Briefly: Time-lapse video microscopy of egress after compound washout. Type of data set: cell-based, Plasmodium falciparum. To be noted: 1 μM.
In data set [8] the test system is PfSUB1-mediated proteolytic processing of SERA5. Description: Western blot of SERA5 processing after washout. Type of data set: cell-based, Plasmodium falciparum. The note with it: 4 h pretreatment then washout. The source says:
To seek unambiguous confirmation that PfSUB1 is the intracellular target of compound 3j, we examined the effects of the compound on the PfSUB1-mediated proteolytic processing of the established endogenous PfSUB1 substrate SERA5, an abundant parasite PV protein that only becomes accessible to cleavage upon discharge of PfSUB1 into the PV in the minutes leading up to egress and is then released in a processed form into culture supernatants ([6], [11], [12]). […] It was concluded that compound 3j prevents egress and parasite proliferation through direct inhibition of intracellular PfSUB1.
Short-term egress, invasion, and washout assays were performed essentially as described previously ([27], [28], [42]). […] Clarified culture supernatants were assessed for extent of hemoglobin release (a measure of schizont rupture) by absorption spectroscopy at 415 nm as described previously ([28]) or analyzed by Western blot using antibodies against SERA5 ([7], [11]). To quantify generation of new rings, samples of the cultures were fixed with 4% paraformaldehyde/0.02% glutaraldehyde and stained with SYBR Green I (Life Technologies) and then analyzed by flow cytometry on a BD FACSVerse using BD FACSuite software. Data were analyzed using FlowJo software. All cultures were also routinely analyzed by microscopic examination of Giemsa-stained thin films to visually assess parasite morphology.
For orientation: A western blot detects proteins with antibodies after separation by electrophoresis.

In the next data set the test system is P. falciparum schizonts. Briefly: Ring formation after pretreatment of schizonts and washout. It is filed as cell-based, Plasmodium falciparum. To be noted: pretreated schizonts washed, fresh RBCs, assessed at 24 h; 3j 10 μM, C2 1 μM. As to the method:
as §1

Setting [9] is: fluorogenic peptide substrate, mean ± SD of at least three measurements, read-out: IC50 (nM) (rPfSUB1).

Values joined by “and” are separate entries in the source; they are usually repeats but may differ in a detail not shown here. Equal entries are not always repeated. “Also recorded” adds a separate entry of the source. Where two headings read alike, the source gives them in different places.

T1 sequence (Q8I0V0 218-688): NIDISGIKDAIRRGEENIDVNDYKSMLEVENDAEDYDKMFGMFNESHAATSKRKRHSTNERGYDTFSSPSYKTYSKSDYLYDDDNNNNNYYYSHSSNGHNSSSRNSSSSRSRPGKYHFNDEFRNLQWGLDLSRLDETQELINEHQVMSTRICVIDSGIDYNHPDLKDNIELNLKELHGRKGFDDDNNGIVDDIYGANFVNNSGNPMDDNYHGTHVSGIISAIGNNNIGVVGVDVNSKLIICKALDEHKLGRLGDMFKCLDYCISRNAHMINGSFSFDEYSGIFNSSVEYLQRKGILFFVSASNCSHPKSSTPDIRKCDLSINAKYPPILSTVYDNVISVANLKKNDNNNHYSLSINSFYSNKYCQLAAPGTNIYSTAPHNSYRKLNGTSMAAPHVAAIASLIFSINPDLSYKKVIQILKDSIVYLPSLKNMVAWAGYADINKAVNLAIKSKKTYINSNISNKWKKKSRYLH

Broadly, the IC50 is the midpoint of a concentration-inhibition curve. Broadly, the EC50 is the midpoint of the concentration-response curve. A low value points to greater potency. As to `CC(=O)NC(C(=O)NC(C(=O)NCC(=O)NC(C)B(O)O)C(C)O)C1CCCC1` (stereo not shown) [3b], the IC50 in data set [1] (setting [9]) worked out at 9.3 ± 0.5 nM. For the same compound, the figures for the 50% effective concentration (EC50) in data set [2] and in data set [3] were 2.3 ± 1.4 µM and 12700 ± 800 nM, respectively.
Turning to `CC(=O)N[C@H](C(=O)N[C@H](C(=O)NCC(=O)NCB(O)O)[C@@H](C)O)C1CCCC1` [3d], the IC50 in [1] (setting [9]) stood at 54.3 ± 1.1 nM. In data set [2], this compound showed an EC50 of 1.9 ± 0.4 µM.
In general, inhibition refers to the share of the control response that was lost under treatment. In the case of `CC(=O)N[C@H](C(=O)N[C@H](C(=O)NCC(=O)NC(C)C(=O)C(=O)NCCC(=O)O)[C@@H](C)O)C1CCCC1` (stereo partly shown) [2a], the IC50 in [1] (IC50(PfSUB1), Fig. 1) was 400 nM; in data set [1] (IC50 (nM) (rPfSUB1), fluorogenic peptide substrate, mean ± SD of at least three measurements) it was ~370 nM and 370 nM. Further, the inhibition at 10 µM in data set [1] (read-out: degree of rPfSUB1 inhibition at 10 µM (%)) was found to be 97%. Moreover, the “activity in parasite growth assay” value in data set [2] is “no activity in parasite growth assay”.
On to `CC(=O)N[C@H](C(=O)N[C@H](C(=O)NCC(=O)N[C@H]1CCC(=O)OB1O)[C@@H](C)O)C1CCCC1` [3g], for which the IC50 in [1] (setting [9]) was 18.7 ± 1.3 nM.
Regarding `CC(=O)N[C@H](C(=O)N[C@H](C(=O)NCC(=O)N[C@H](C)B(O)O)[C@@H](C)O)C1CCCC1` [3c], in data set [1] (setting [9]), the IC50 turned out to be 60.1 ± 2.1 nM. Further, the midpoint of the response in [2], the EC50, lay at 18.4 ± 1.8 µM.
As to `CC(=O)N[C@H](C(=O)N[C@H](C(=O)NCC(=O)N[C@H]1CCCOB1O)[C@@H](C)O)C1CCCC1` [3f], the IC50 in [1] (setting [9]) was determined as 204 ± 7.5 nM.
Turning to `CC(C)C[C@H](NC(=O)CNC(=O)c1cc(Cl)ccc1Cl)B(O)O` [ixazomib], in data set [4], the terminal half-life was roughly 228 h.
On to `CC(=O)N[C@H](C(=O)N[C@H](C(=O)NCC(=O)NC(C)C(=O)C(=O)NCCC(=O)O)[C@@H](C)O)C(C)C` (stereo partly shown) [compound 1], for which the figures for the half-inhibitory concentration (IC50) in [5] (Table S1) and in data set [5] (earlier work) were 900 ± 200 nM and roughly 900 nM, respectively. Further, in data set [6], the “antiparasite activity in vitro / parasite growth assay” value was “no antiparasite activity in vitro; also recorded: no activity in parasite growth assay”.
Consider `CC(=O)N[C@H](C(=O)N[C@H](C(=O)NCC(=O)NC(B(O)O)c1ccccc1)[C@@H](C)O)C1CCCC1` (stereo partly shown) [3h], for which the IC50 in data set [1] (setting [9]) worked out at 112 ± 2.3 nM.
Turning to `CCC(C)[C@H](NC(C)=O)C(=O)N[C@H](C(=O)NCC(=O)N[C@@H](C)B(O)O)[C@@H](C)O` (stereo partly shown) [3a], the IC50 in data set [1] (setting [9]) is 69.4 ± 1.2 nM. The compound also displayed an EC50 in data set [2] of 1.8 ± 0.6 µM.
On to `CN(C)Cc1ccn2c(-c3ccnc(N)n3)c(-c3ccc(F)cc3)nc2c1` [C2, 4-[7-[(dimethylamino)methyl]-2-(4-fluorphenyl)imidazo[1,2-α]pyridine-3-yl]pyrimidin-2-amine, reference compound], for which the “time of egress initiation following washout” value in [7] was roughly 6.5 min. In addition, the SERA5 proteolytic processing entry in data set [8] was “blocked”. Besides, the “ring production after washout” value in the data set on P. falciparum schizonts is “produced rings efficiently”.
Regarding `CC(=O)N[C@H](C(=O)N[C@H](C(=O)NCC(=O)N[C@H]1CCOB1O)[C@@H](C)O)C1CCCC1` [3e], the half-inhibitory concentration (IC50) in data set [1] (setting [9]) came to 4.6 ± 0.1 nM. For the same compound, the concentration giving a half-maximal response (EC50) in data set [2] was 15 ± 3.6 µM; in data set [3], 15700 ± 2500 nM.
With `CC(=O)N[C@H](C(=O)N[C@@H](C)C(=O)NCC(=O)N[C@@H](C)B(O)O)C1CCCC1` [3i], the 50% inhibitory concentration (IC50) in data set [1] (setting [9]) was ~7.8 nM and 7.8 nM. The figures for the EC50 in data set [2] and in data set [3] were 0.34 ± 0.08 µM and 2000 ± 100 nM, respectively. In data set [2] (relative to compound 3b), the “improved growth inhibitory potency” value was roughly 10 fold. The “schizont phenotype in Giemsa-stained thin films” value in data set [3] (10 μM, 4 h incubation) is on record as “arrest of unruptured schizonts with no ring formation”.
